In patent US10604524B2, “Pyrropyrimidine compounds as MNKs inhibitors” (LIFEARC, priority 2015, dated 2020):

Experiments:
[1] = tested on: monocytic cell line THP-1; settings: cited from earlier work
keratinocytes = settings: cited from earlier work
Full-length human MNK2 = Full-length human MNK2 (Homo sapiens, UniProt Q9HBH9, T379D); assay: MNK2 biochemical IC50 assay (Caliper mobility shift)
[2] = tested on: phosphorylation of eIF4E at ser209 in MV4.11 cell line; assay: cells; type: cell-based; settings: Homo sapiens; MV4.11 cells, 1.5 hr compound incubation, average of at least 2 independent experiments; read-out: plc50 elF4E (converted)
Experimental: MNK activity in cells was measured by monitoring the phosphorylation of eIF4E at ser209, the known endogenous substrate of MNK1/2, in cell lysates. […] The assay detection is based on the formation of sandwich antibody complexes coupled to donor and acceptor beads. Excitation at 680 nm causes the transfer of a singlet oxygen species between donor and acceptor beads when they are in close proximity by binding to the analyte […], which results in the emission of light at 520-620 nm.
Cells were then lysed and the Aphascreen Surefire protocol followed according to manufacturer's recommendations. 8 ul Acceptor beads (1:50 dilution in kit activation buffer) was added to lysate, shaken 150 rpm for 2 min and incubated for 1.5 hr at room temperature. 3 ul Donor beads (1:20 dilution in kit dilution buffer) were then added, shaken 150 rpm for 2 min and incubated for a further 1.5 hr at room temperature after which the plates were read on Pherastar FS using Alphascreen optic module.
Data were normalised relative to untreated DMSO only controls and curves repeated in duplicate within experiments. Data reported are averages of at least 2 independent experiments.

Full-length human MNK1 = Full-length human MNK1 (Homo sapiens, UniProt Q9BUB5, T385D); assay: MNK1 biochemical IC50 assay (Caliper mobility shift)
Chain of Full-length human MNK1 (Q9BUB5 1-424 isoform Q9BUB5-2 T344D): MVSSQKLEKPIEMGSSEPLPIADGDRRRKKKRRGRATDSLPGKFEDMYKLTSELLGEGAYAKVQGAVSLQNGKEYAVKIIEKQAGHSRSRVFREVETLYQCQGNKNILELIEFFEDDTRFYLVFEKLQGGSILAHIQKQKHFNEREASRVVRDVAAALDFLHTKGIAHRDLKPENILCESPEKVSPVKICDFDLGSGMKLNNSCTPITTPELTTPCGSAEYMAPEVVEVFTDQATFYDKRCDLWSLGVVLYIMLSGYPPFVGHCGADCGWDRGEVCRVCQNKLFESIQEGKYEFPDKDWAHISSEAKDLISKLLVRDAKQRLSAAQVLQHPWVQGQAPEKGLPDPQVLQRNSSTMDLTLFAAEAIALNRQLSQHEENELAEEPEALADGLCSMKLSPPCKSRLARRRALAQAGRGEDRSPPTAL

HCT116 xenograft = HCT116 xenograft models; cited from earlier work
[3] = tested on: B16 melanoma lung metastases; settings: in vivo; cited from earlier work
eIF4E phosphorylation = settings: after oral administration, normal mouse tissues and xenografted tumors; cited from earlier work

Chain of Full-length human MNK2 (Q9HBH9 whole entry T379D): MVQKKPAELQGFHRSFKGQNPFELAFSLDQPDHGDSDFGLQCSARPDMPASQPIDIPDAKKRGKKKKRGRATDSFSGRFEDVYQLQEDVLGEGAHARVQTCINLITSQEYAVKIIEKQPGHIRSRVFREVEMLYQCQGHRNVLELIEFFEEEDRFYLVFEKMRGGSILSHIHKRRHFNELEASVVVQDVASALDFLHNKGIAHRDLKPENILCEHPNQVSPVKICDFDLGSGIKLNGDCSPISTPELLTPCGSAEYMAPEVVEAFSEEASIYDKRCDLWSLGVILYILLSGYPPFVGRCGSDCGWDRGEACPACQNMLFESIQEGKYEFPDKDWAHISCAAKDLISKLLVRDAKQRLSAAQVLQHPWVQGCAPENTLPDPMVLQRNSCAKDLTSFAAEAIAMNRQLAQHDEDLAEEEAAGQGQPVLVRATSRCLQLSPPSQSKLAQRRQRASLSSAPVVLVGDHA

Nc1ncnc2n[nH]c(Nc3ccc(F)cc3)c12 [CGP57380]
block of release of IL-1β and IL-8 induced by Shiga toxin [1]: 73-96% | TNF-production (keratinocytes): reduced TNF-production | expression of IL-1β and IL-6 (keratinocytes): decreased expression

CC(C)Oc1cc(F)ccc1Nc1ncnc2ccn(CCO)c12 [Example 4, 2-[4-(4-Fluoro-2-isopropoxy-anilino)pyrrolo[3,2-d]pyrimidin-5-yl]ethanol]
IC50 (Full-length human MNK2): 1260 nM | IC50 [2]: 251 nM | IC50 (Full-length human MNK1): 2000 nM

Cn1ccc2ncnc(Nc3ccc(F)cc3OCC(F)F)c21 [Example 31, N-[2-(2,2-difluoroethoxy)-4-fluoro-phenyl]-5-methyl-pyrrolo[3,2-d]pyrimidin-4-amine]
IC50 (Full-length human MNK2): 158 nM | IC50 [2]: 50.1 nM | IC50 (Full-length human MNK1): 316 nM

CC(C)Oc1cc(F)ccc1Nc1ncnc2ccn(C(C)C)c12 [Example 3, N-(4-fluoro-2-isopropoxy-phenyl)-5-isopropyl-pyrrolo[3,2-d]pyrimidin-4-amine]
IC50 (Full-length human MNK2): 501 nM | IC50 [2]: 158 nM | IC50 (Full-length human MNK1): 1000 nM

Cn1ccc2ncnc(Nc3ccc(F)cc3O[C@H]3CCCC[C@@H]3O)c21 [Example 36, (1S,2S)-2-[5-fluoro-2-[(5-methylpyrrolo[3,2-d]pyrimidin-4-yl)amino]phenoxy]cyclohexanol]
IC50 (Full-length human MNK2): 251 nM | IC50 [2]: 39.8 nM | IC50 (Full-length human MNK1): 794 nM

CC(CF)Oc1cc(F)ccc1Nc1ncnc2ccn(C)c12 (racemic) [Example 26, Racemic-N-[4-fluoro-2-(2-fluoro-1-methyl-ethoxy)phenyl]-5-methyl-pyrrolo[3,2-d]pyrimidin-4-amine]
IC50 (Full-length human MNK2): 31.6 nM | IC50 [2]: 15.8 nM | IC50 (Full-length human MNK1): 79.4 nM

CC(C)Oc1nc(Cl)ccc1Nc1ncnc2ccn(C)c12 [Example 6, N-(6-chloro-2-isopropoxy-3-pyridyl)-5-methyl-pyrrolo[3,2-d]pyrimidin-4-amine]
IC50 (Full-length human MNK2): 63.1 nM | IC50 [2]: 63.1 nM | IC50 (Full-length human MNK1): 251 nM

Cn1ccc2ncnc(Nc3ccc(F)cc3OC3CCOCC3)c21 [Example 13, N-(4-fluoro-2-tetrahydropyran-4-yloxy-phenyl)-5-methyl-pyrrolo[3,2-d]pyrimidin-4-amine]
IC50 (Full-length human MNK2): 158 nM | IC50 [2]: 63.1 nM | IC50 (Full-length human MNK1): 316 nM

CC(C)Oc1cc(Cl)ccc1Nc1ncnc2ccn(C)c12 [Example 9, N-(4-chloro-2-isopropoxy-phenyl)-5-methyl-pyrrolo[3,2-d]pyrimidin-4-amine]
IC50 (Full-length human MNK2): 79.4 nM | IC50 [2]: 79.4 nM | IC50 (Full-length human MNK1): 158 nM

CC(C)Oc1c(Nc2ncnc3ccn(C)c23)ccc(F)c1F [Example 32, N-(3,4-difluoro-2-isopropoxy-phenyl)-5-methyl-pyrrolo[3,2-d]pyrimidin-4-amine]
IC50 (Full-length human MNK2): 1000 nM | IC50 [2]: 794 nM | IC50 (Full-length human MNK1): 2000 nM

Cn1ccc2ncnc(Nc3ccc(F)cc3OC3CCC3)c21 [Example 17, N-[2-(cyclobutoxy)-4-fluoro-phenyl]-5-methyl-pyrrolo[3,2-d]pyrimidin-4-amine]
IC50 (Full-length human MNK2): 79.4 nM | IC50 [2]: 31.6 nM | IC50 (Full-length human MNK1): 200 nM

CC(C)Oc1c(F)cccc1Nc1ncnc2ccn(C)c12 [Example 33, N-(3-fluoro-2-isopropoxy-phenyl)-5-methyl-pyrrolo[3,2-d]pyrimidin-4-amine]
IC50 (Full-length human MNK2): 50.1 nM | IC50 [2]: 25.1 nM | IC50 (Full-length human MNK1): 100 nM

CO[C@H]1CCCC[C@@H]1Oc1cc(F)ccc1Nc1ncnc2ccn(C)c12 [Example 37, N-[4-fluoro-2-[(1S,2S)-2-methoxycyclohexoxy]phenyl]-5-methyl-pyrrolo[3,2-d]pyrimidin-4-amine]
IC50 (Full-length human MNK2): 794 nM | IC50 [2]: 251 nM | IC50 (Full-length human MNK1): 15800 nM

CC(=O)C1=C(O)C=C2Oc3c(C(N)=O)c(O)cc(O)c3[C@]2(C)C1=O [cercosporamide]
tumor growth (HCT116 xenograft): reducing tumor growth | outgrowth of B16 melanoma lung metastases [3]: suppressing the outgrowth | time to effectively block eIF4E phosphorylation (eIF4E phosphorylation): ≤ 30 min

Cn1ccc2ncnc(Nc3ccc(F)cc3OC3CC3)c21 [Example 24, N-[2-(cyclopropoxy)-4-fluoro-phenyl]-5-methyl-pyrrolo[3,2-d]pyrimidin-4-amine]
IC50 (Full-length human MNK2): 200 nM | IC50 [2]: 79.4 nM | IC50 (Full-length human MNK1): 501 nM

Cn1ccc2ncnc(Nc3ccc4[nH]ncc4c3)c21 [Example 14, N-(1H-indazol-5-yl)-5-methyl-pyrrolo[3,2-d]pyrimidin-4-amine]
IC50 (Full-length human MNK2): 398 nM | IC50 [2]: 398 nM | IC50 (Full-length human MNK1): 251 nM

C[C@H](CF)Oc1cc(F)ccc1Nc1ncnc2ccn(C)c12 [Example 23, N-[4-fluoro-2-[(1R)-2-fluoro-1-methyl-ethoxy]phenyl]-5-methyl-pyrrolo[3,2-d]pyrimidin-4-amine]
IC50 (Full-length human MNK2): 39.8 nM | IC50 [2]: 15.8 nM | IC50 (Full-length human MNK1): 126 nM

CCCn1ccc2ncnc(Nc3ccc(F)cc3OC(C)C)c21 [Example 2, N-(4-fluoro-2-isopropoxy-phenyl)-5-propyl-pyrrolo[3,2-d]pyrimidin-4-amine]
IC50 (Full-length human MNK2): 398 nM | IC50 [2]: 158 nM | IC50 (Full-length human MNK1): 501 nM

CN(C)CCCNC(=O)c1cc2ncnc(N3CCc4cc(F)ccc43)c2[nH]1 [Example 39, N-[3-(dimethylamino)propyl]-4-(5-fluoroindolin-1-yl)-5H-pyrrolo[3,2-d]pyrimidine-6-carboxamide]
IC50 (Full-length human MNK2): 12.6 nM | IC50 [2]: 25.1 nM | IC50 (Full-length human MNK1): 12.6 nM

CC(C)Oc1cc(F)ccc1Nc1ncnc2cc(C(=O)NCCN3CCNCC3)n(C)c12 [Example 42, 4-{[4-Fluoro-2-(propan-2-yloxy)phenyl]amino}-5-methyl-N-[2-(piperazin-1-yl)ethyl]-5H-pyrrolo[3,2-d]pyrimidine-6-carboxamide]
IC50 (Full-length human MNK2): 50.1 nM | IC50 [2]: 100 nM | IC50 (Full-length human MNK1): 50.1 nM
